From US20260250278A1, “PHENYL-SUBSTITUTED DIHYDRONAPHTHYRIDINE COMPOUNDS, AND PREPARATION AND USE THEREOF” (SUZHONG PHARMACEUTICAL GROUP CO., LTD., priority 2022, published 2026)

Key:
[1] = molecular target: T1, mineralocorticoid receptor (MR) (Homo sapiens, UniProt P08235); test: MR Gal4-LBD luciferase reporter gene assay in HEK293T cells (antagonism of 0.8 nM aldosterone); assay type: cell-based
T1 construct: expressed in transfected cells
T1 sequence (P08235 726-964 limits assumed): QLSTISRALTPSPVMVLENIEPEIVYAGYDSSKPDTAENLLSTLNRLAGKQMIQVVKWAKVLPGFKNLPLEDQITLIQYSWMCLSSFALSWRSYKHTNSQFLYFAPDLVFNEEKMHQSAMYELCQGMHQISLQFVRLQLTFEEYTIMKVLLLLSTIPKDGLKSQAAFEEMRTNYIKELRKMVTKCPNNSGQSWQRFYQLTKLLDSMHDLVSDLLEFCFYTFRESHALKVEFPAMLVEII
Text: By the characteristic of chemiluminescence reaction produced by combination of luciferase and substrate, a Gal4 DNA binding domain (DBD) fused plasmid containing a mineralocorticoid receptor (MR) ligand binding domain (LBD) and a firefly luciferase reporter gene plasmid under the control of Gal4 UAS (upstream activation sequence) were transfected into human embryonic kidney cells (HEK293). Changes of […] were judged by a level of firefly luciferase activity.
All compounds were dissolved in DMSO to prepare a 25 mM stock solution, and stored in a refrigerator at −20° C.
• 1) A compound to be tested was subjected to 3-times gradient dilution with the DMSO, with 10 concentration gradients and an initial concentration of 10 mM. • 2) A positive compound (Finerenone) was subjected to 3-times gradient dilution with the DMSO, with 10 concentration gradients and an initial concentration of 1 mM. • 3) 1000× positive control (1 mM, Finerenone) and 1000× negative control (100% DMSO) were prepared. • 4) A compound plate was sealed and shaken for 5 minutes.
• 5) All cells were cultured by ATCC standard operation, and HEK293T was experimented in an exponential growth phase. • 6) A culture medium supernatant was gently discarded. The cells were washed with PBS twice.
(3) The cells were digested with pancreatin digestive juice, the digestion was stopped with a complete culture solution, and then the cells were collected and counted.
(4) 6×10^6 HEK293T cells were inoculated into a 100 mm cell culture dish.
(5) The culture dish inoculated with the cells was cultured in a 5% CO2 incubator at 37° C. for 16 hours overnight.
• 1) Lipofectamine® 3000&P3000 transfection reagents were placed at room temperature. • 2) The Lipofectamine® 3000 reagent was added into an Opti-MEM™ culture medium, and meanwhile, the P3000, the plasmid and the Opti-MEM™ culture medium were added into another tube, taking care not to touch the tube wall. • 3) The mixture was mixed evenly by a pipette, and allowed to stand at room temperature for 5 minutes. • 4) The plasmid was added into the diluted transfection reagent, mixed evenly by a pipette, and allowed to stand at room temperature for 20 minutes. • 5) The transfection reagent mixed with the plasmid was added into a […] cell culture dish. • 6) The culture dish was cultured in a 5% CO2 incubator at 37° C. for 5 hours to 6 hours.
• 1) 25 nL of diluted compound was transferred to a cell culture plate with Echo655. • 2) The cells (referring to step 1.3) were inoculated into a 384 cell culture plate, with 17,000 cells, 25 μL of phenol red-free DMEM culture medium containing 5% CFBS and 0.8 nM Aldosteron per well.
(3) The cell culture plate was cultured in a 5% CO2 incubator at 37° C. for 18 hours to 20 hours overnight.
• 1) A Britelite plus detection reagent was placed at room temperature. 2) The 384 cell plate was placed at room temperature. • 3) 25 μL of Britelite plus detection reagent was added into each well of the cell culture plate. • 4) A luminescence was detected with Envision.
• 1) a firefly luciferase signal was obtained by reading the Luminescence to calculate an inhibition rate; • 2) % inhibition rate=100−[(RLU compound−avgRLU positive control)/(RLU negative control−avgRLU positive control)×100%, wherein the avgRLU positive control was an average value of Luminescences of all positive control wells in the whole plate; the avgRLU negative control was an average value of Luminescences of all negative control wells in the whole plate; and the RLU compound was Luminescence values of compounds to be tested with different concentrations; and • 3) IC50 of the compound was calculated by Graphpad8.0 Drawing software.

[2] = Pharmacokinetic test of mice (intravenous administration); assay type: in vivo; conditions: mouse, plasma; CD1 mice, intravenous 1 mg/kg
Method: This experiment was intended to evaluate a pharmacokinetic behavior of a compound after intravenous injection or intragastric administration in the mice. Intravenous injection administration: a test compound was prepared into 0.2 mg/mL clear solution, a solvent was 10% ethanol/40% polyethylene glycol 400/50% ultrapure water, and after administration, plasma was collected 0.083 hour, 0.25 hour, 0.5 hour, 1 hour, 2 hours, 4 hours, 8 hours, 24 hours and 48 hours later.
A concentration of the test compound in the plasma was determined by high-performance liquid chromatography-tandem mass spectrometry (LC-MS/MS). Retention time, chromatogram collection and chromatogram integration of compounds and internal standards were treated by software Analyst (Applied Biosystems), and data statistics was treated by software Analyst (Applied Biosystems).
A plasma concentration was treated by a non-atrioventricular model of Winnonlin™ Version 6.1 (Pharsight, Mountain View, CA) pharmacokinetic software, and pharmacokinetic parameters were calculated by a linear logarithmic trapezoid method.

[3] = Tissue distribution, AUC ratio of heart to kidney; assay type: in vivo; conditions: compared with Finerenone

| Structure (SMILES) | IC50 [1] [nM] | AUC(0-t) [2] [µg·h/mL] | AUC (tissue distribution) ratio of heart to kidney [3] |
| --- | --- | --- | --- |
| CCOc1ncc(C)c2c1[C@H](c1ccc(C#N)c3c1OCC3)C(C(N)=O)=C(C)N2 [Example 36, (S)-4-(4-cyano-2,3-dihydrobenzofuran-7-yl)-5-ethoxy-2,8-dimethyl-1,4-dihydro-1,6-naphthyridine-3-formamide] | 11.5 | 206 | lower |
| CCOc1ncc(C)c2c1[C@H](c1ccc(C#N)c3c1OCO3)C(C(N)=O)=C(C)N2 [Example 62, (S)-4-(7-cyanobenzo[d][1,3]dioxol-4-yl)-5-ethoxy-2,8-dimethyl-1,4-dihydro-1,6-naphthyridine-3-formamide] | 14.8 | 201 |  |
